# How the values were obtained:
# [1] = system: YAC128 mice; conditions: cited from earlier work
# [2] = molecular target: T1, human OCT1 (Homo sapiens, UniProt O15245); experiment: Direct uptake transporter assay, OCT1; format: in vitro ADME; conditions: for Accumulation in transporter transfected cells: OCT1-transfected cells; for Accumulation in parental cells: parental CHO cells (OCT1 line)
# T1 construct: expressed in transfected cells; host or cells: CHO cells
# T1 sequence (O15245 1-554): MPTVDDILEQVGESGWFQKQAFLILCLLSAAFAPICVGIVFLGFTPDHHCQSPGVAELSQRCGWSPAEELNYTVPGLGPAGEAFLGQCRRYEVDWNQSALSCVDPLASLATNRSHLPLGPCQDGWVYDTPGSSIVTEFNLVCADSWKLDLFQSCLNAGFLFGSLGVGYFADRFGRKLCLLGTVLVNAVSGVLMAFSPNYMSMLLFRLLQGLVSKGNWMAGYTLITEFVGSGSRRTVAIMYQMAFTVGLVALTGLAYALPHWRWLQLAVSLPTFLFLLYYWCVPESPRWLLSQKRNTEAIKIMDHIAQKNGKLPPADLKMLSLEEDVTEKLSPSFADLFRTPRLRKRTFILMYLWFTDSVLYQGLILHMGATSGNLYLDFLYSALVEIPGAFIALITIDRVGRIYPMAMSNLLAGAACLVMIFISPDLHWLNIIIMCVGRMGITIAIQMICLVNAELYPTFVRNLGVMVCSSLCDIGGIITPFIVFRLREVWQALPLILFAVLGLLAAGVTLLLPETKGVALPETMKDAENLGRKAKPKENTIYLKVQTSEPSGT
# Experimental: To determine whether memantine is a substrate of the human OATP2B1 (OATP-B), OCT1, OCT2, OAT3, PEPT1, PEPT2 uptake transporters.
# The potential for memantine to be a substrate of an uptake transporter was determined directly by comparing the uptake of memantine into cells expressing the selected uptake transporter with its uptake into control cells. Memantine was added to transporter-expressing and control cells at two concentrations (PEPT1 and PEPT2 100 and 300 µM, OCT1 and OCT2 50 and 100 µM, OATP2B1 100 and 300 µM), and incubated with cells for 2 and 20 min at 37±1°C (75 µL final incubation volume). […] Incubations were carried out as described in the indirect uptake transporter assays. The concentration of memantine was determined by LC-MS/MS.
# [3] = Stability in mouse liver microsomes; format: in vitro ADME; conditions: 0.5 mg/mL pooled male microsomes, read-out: Intrinsic Clearance (Cl int) Liver Microsomes
# Experimental: Memantine (1 μM) was incubated in 0.5 mg/mL of pooled male rat, mouse, or human liver microsomes (obtained commercially), in 0.1 M phosphate buffer at 37 °C. After pre-warming the mixture for 5 min, reactions were initiated by the addition of NADPH (1 mM). Aliquots (80 μL) were taken at 0, 5, 10, 20 and 40 min, and the reaction immediately terminated by adding into 80 μL of acetonitrile containing an analytical internal standard (IS). Samples were centrifuged and the supernatant fractions analyzed by LC-MS/MS with multiple reaction monitoring (MRM). All incubations were performed in duplicate. Testosterone was used as the positive control. The MRM area response ratio of the analyte over IS for Time=0(control) was set to 100%, the relative decrease in MRM area ratio intensity over time against that of the control (percent parent decrease) was used to determine the half-life (t1/2) of memantine in the incubation. Half-life values were calculated from the relationship:
# t1/2 (min) = -0.693/λ, where λ is the slope of the Ln concentration vs time curve. The intrinsic clearance (Clint) was calculated as:
# Clint = (0.693 x incubation volume (μL))/(t½ (min) x mg of microsomal protein)
smiles,measurement,setting,value
CC12CC3CC(C)(C1)CC(N)(C3)C2 [memantine],CREB phosphorylation deficit,"[1]; YAC128 mice, 1 mg/kg in drinking water for 2 months, age 4 months",reversed the deficit in CREB phosphorylation
same,rotarod learning task,"[1]; YAC128 mice, 1 mg/kg in drinking water for 2 months",improvement in a rotarod learning task
same,motor performance and neuropathology compared to vehicle-treated mice,"[1]; YAC128 mice, high-dose (30 mg/kg)",worsened motor performance and neuropathology
same,HTT aggregate formation and TCP-1 expression levels,"[1]; YAC128 mice, high-dose",decrease HTT aggregate formation and TCP-1 expression levels
same,striatal levels of Rhes protein,"[1]; YAC128 mice, low-dose (not high-dose)",decreased striatal levels of Rhes protein
same,neuropathology and motor deficits,"[1]; aged (12 months) YAC128 mice, low-dose",rescue neuropathology as well as motor deficits
same,active transport by OCT1,[2],not actively transported
same,Highest Fold Activation,[2]; OCT1,Not observed
same,Accumulation in transporter transfected cells,"[2]; 2 min, 50 µM",3818 pmol/mg
same,Accumulation in transporter transfected cells,"[2]; 2 min, 100 µM",5878 pmol/mg
same,Accumulation in transporter transfected cells,"[2]; 20 min, 50 µM",5540 pmol/mg
same,Accumulation in transporter transfected cells,"[2]; 20 min, 100 µM",9190 pmol/mg
same,Accumulation in parental cells,"[2]; 2 min, 50 µM",3894 pmol/mg
same,Accumulation in parental cells,"[2]; 2 min, 100 µM",6337 pmol/mg
same,Accumulation in parental cells,"[2]; 20 min, 50 µM",5672 pmol/mg
same,Accumulation in parental cells,"[2]; 20 min, 100 µM",9576 pmol/mg
same,microsomal CLint at 1 μM,[3],< 13.9 µL/min/mg

# From paper PMC3269340, “Pharmacokinetics of memantine in rats and mice” (PLoS Currents, 2012)
